Results published in PubChem BioAssay (NCI).
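Cells were grown in 96-well plates and exposed to each compound for 48 hours at five concentrations; endpoints were interpolated linearly between bracketing concentrations, or set to the highest concentration if not reached. Abbreviation: GI50, concentration required for 50% inhibition of growth. TGI denotes the concentration required for complete inhibition of growth.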

How the values were obtained:
Assay in all cases: NCI-60 cell line screen, 48 h
786-0 renal = test system: 786-0 renal
HOP-62 NSCLC = test system: HOP-62 NSCLC
IGROV1 ovarian = test system: IGROV1 ovarian
KM12 colon = test system: KM12 colon
NCI-H23 lung = test system: NCI-H23 lung
OVCAR-8 ovarian = test system: OVCAR-8 ovarian
SN12C renal = test system: SN12C renal
UO-31 renal = test system: UO-31 renal
SF-268 CNS = test system: SF-268 CNS
HL-60(TB) leukemia = test system: HL-60(TB) leukemia

| SMILES | GI50 (786-0 renal) | TGI (786-0 renal) | GI50 (HOP-62 NSCLC) | TGI (HOP-62 NSCLC) | GI50 (IGROV1 ovarian) | TGI (IGROV1 ovarian) | GI50 (KM12 colon) | TGI (KM12 colon) | GI50 (NCI-H23 lung) | TGI (NCI-H23 lung) | GI50 (OVCAR-8 ovarian) | TGI (OVCAR-8 ovarian) | GI50 (SN12C renal) | TGI (SN12C renal) | GI50 (UO-31 renal) | TGI (UO-31 renal) | GI50 (SF-268 CNS) | TGI (SF-268 CNS) | GI50 (HL-60(TB) leukemia) | TGI (HL-60(TB) leukemia) |
| --- | --- | --- | --- | --- | --- | --- | --- | --- | --- | --- | --- | --- | --- | --- | --- | --- | --- | --- | --- | --- |
| CN(C)[C@@H]1C(=O)C(C(=O)NCc2nc3[nH]cnc(=S)c3[nH]2)=C(O)[C@@]2(O)C(=O)C3=C(O)c4c(O)cccc4[C@@](C)(O)[C@H]3C[C@@H]12 | 3.78 µM | > 100 µM | 1.4 µM | > 100 µM | 16 µM | > 100 µM | 5.01 µM | > 100 µM | 8.85 µM | > 100 µM | 6.78 µM | > 100 µM | 59.9 µM | > 100 µM | 3.69 µM | > 100 µM | – | – | – | – |
| COc1ccc(-c2c(Nc3ccccn3)nc3c(C4=CCCCC4)c(-c4ccccc4)[nH]n3c2=O)cc1 | 2.63 µM | 16.3 µM | 3.73 µM | 22.9 µM | 3.5 µM | 51.4 µM | 3.7 µM | > 100 µM | 4.17 µM | 24.1 µM | 3.47 µM | > 100 µM | 2.7 µM | > 100 µM | 2.19 µM | > 100 µM | 2.64 µM | 42.4 µM | – | – |
| CC(C)(C)C1CC[C@H]2c3c([nH]c4ccccc34)[C@H]3C(=O)N(c4ccc(F)cc4)C(=O)[C@H]3[C@H]2C1 (some centres not stated) | – | 23.5 µM | – | 30.8 µM | – | 35.3 µM | – | 27.8 µM | – | 33.4 µM | – | 25.2 µM | – | 23.6 µM | – | 29.7 µM | – | 30.8 µM | – | – |
| O=C(O)c1cn(C2CC2)c2cc(N3CCN(C(=O)N(c4ccccc4)c4nc(-c5ccccc5)cs4)CC3)c(F)cc2c1=O | 0.417 µM | > 100 µM | 0.462 µM | > 45.4 µM | 0.393 µM | > 100 µM | 0.369 µM | > 100 µM | – | – | 0.378 µM | > 100 µM | 0.308 µM | > 100 µM | – | – | 0.389 µM | > 100 µM | – | – |
| COc1ccc(-n2c(=O)c3ccccc3n(Cc3ccc(C(=O)NO)cc3)c2=O)cc1 | 2.53 µM | 7.09 µM | 2.29 µM | 6.19 µM | – | – | 1.77 µM | 4.08 µM | 1.78 µM | 4.29 µM | 1.8 µM | 5.88 µM | – | – | 6.58 µM | 21.5 µM | 1.91 µM | 4.25 µM | 3.51 µM | > 100 µM |
| c1cc(OCCCCCOc2cccc(-c3nc4ccccc4[nH]3)c2)cc(-c2nc3ccccc3[nH]2)c1 | 2.68 µM | > 100 µM | 3.58 µM | > 100 µM | 0.324 µM | > 100 µM | 2.69 µM | > 100 µM | – | – | 2.53 µM | 6.15 µM | 4.61 µM | > 100 µM | – | – | 5.12 µM | > 100 µM | – | – |
| CN(C)c1ccc(/C=c2/sc3nc(=O)c(-c4ccccc4NC(=O)C(F)(F)F)nn3c2=O)cc1 | – | > 100 µM | – | > 100 µM | – | > 100 µM | – | > 100 µM | – | > 100 µM | – | > 100 µM | – | > 100 µM | – | > 100 µM | – | > 100 µM | – | – |
| O=C(CC1(O)C(=O)Nc2c(Cl)ccc(Cl)c21)c1ccc(Cl)cc1 (configuration not stated) | – | 32.1 µM | – | > 100 µM | – | 57.7 µM | – | 78 µM | – | 46.5 µM | – | 42.1 µM | – | 34.1 µM | – | > 100 µM | – | 94 µM | – | – |
| O=C1c2ccccc2N1C(=O)c1ccccc1[N+](=O)[O-] | – | > 100 µM | – | > 100 µM | – | > 100 µM | – | > 100 µM | – | > 100 µM | – | > 100 µM | – | – | – | > 100 µM | – | > 100 µM | – | – |
| O=C1c2ccccc2C2(O)N(c3ccccc3)C(=S)N(c3ccccc3)C12O (configuration not stated) | – | > 100 µM | – | > 100 µM | – | > 100 µM | – | > 100 µM | – | > 100 µM | – | > 100 µM | – | > 100 µM | – | > 100 µM | – | > 100 µM | – | – |
| COc1cc2c(cc1OCCN1CCN(CCN3C(=O)c4cccc5cccc(c45)C3=O)CC1)N=C[C@@H]1CCCN1C2=O | 18.2 µM | 33.4 µM | 19.7 µM | 34.9 µM | 19.2 µM | 36.9 µM | 18.2 µM | 39 µM | 13 µM | 25.6 µM | 19.9 µM | 44.3 µM | 23.2 µM | 58.6 µM | 18.5 µM | 32.5 µM | 15.8 µM | 33 µM | – | – |
| CC(=O)NC(CCCNC(=O)OCc1ccccc1)C(=O)NCc1ccccc1 (configuration not stated) | – | > 100 µM | – | > 100 µM | – | > 100 µM | – | > 100 µM | – | > 100 µM | – | > 100 µM | – | > 100 µM | – | > 100 µM | – | > 100 µM | – | – |
| CCN1CCN(CC(=O)Nc2nc3ccc(NCc4ccc(Br)cc4)cc3s2)CC1 | 1.85 µM | 3.5 µM | – | – | – | – | 3.25 µM | > 100 µM | 3.22 µM | > 100 µM | 3.25 µM | > 100 µM | 2.73 µM | > 100 µM | 1.78 µM | 3.4 µM | – | – | 1.95 µM | 3.81 µM |
| O=C(CC1(O)C(=O)Nc2c(Cl)cc(Cl)cc21)c1cccc([N+](=O)[O-])c1 (configuration not stated) | – | > 59.9 µM | – | 98.6 µM | – | 55.8 µM | – | > 100 µM | – | 52.3 µM | – | > 83.9 µM | – | 58.1 µM | – | 60.1 µM | – | > 100 µM | – | – |
